# Entries after “also recorded” stand apart in the source; their conditions may differ. Structures can show the parent of a compound that is named as a salt. Where two headings read alike, the source gives them in different places.
# What was measured:
# Assay type in all cases: in vivo, Caenorhabditis elegans
# [1] = tested on: C. elegans strain PE254; assay: C. elegans LSC qHTS viability assay, Anti-Infectives library primary screen (BG-fed, 384-well); conditions: for activity on C. elegans viability in primary qHTS (in words): seven-point titration, GFP area; for EC50: Caenorhabditis elegans, Fig. 3D
# Experimental: Levamisole, ivermectin and albendazole were purchased from Sigma-Aldrich. Stock solutions of all compounds were prepared at 10 mM in DMSO, and ivermectin was diluted to a 10 µM working dilution in DMSO. […] Of these, 284 (38%) are approved for clinical use in the United States, 32 (4%) were previously marketed for use in the United States, and 62 (8%) are used clinically outside of the United States. […] DMSO stock solutions of were arrayed in Echo-qualified 384-well cyclic olefin copolymer plates (Labcyte) in qHTS inter-plate dilution with seven concentrations, 1:5 dilution, resulting in a final concentration range of 2.5–20 mM high concentration titrated to 160 nM to 1.28 µM low concentration ([Yasgar et al., 2008]). ‘Assay-ready’ plates were prepared in 384-well uClear microtiter plates (Greiner BioOne), with compounds acoustically dispensed at 250 nl per well with an Echo 555 in the above inter-plate titration array. Two plates with DMSO added across the compound field at the same volume were prepared as screening controls (‘uniformity plates’). DMSO vehicle control was added to every well of column 1, and levamisole cytotoxicity control was added at a high concentration of 10 mM in wells 1–8 and titrated 1:3, starting at a high concentration of 10 mM to 4.57 µM in wells 9–16 of column 2 of every plate. Additionally, ivermectin, levamisol and albendazole were plated as internal controls on one assay plate in 16-point, 1:2 titration down six replicate columns per compound, starting at a high concentration of 10 µM (ivermectin) or 10 mM (levamisole and albendazole). Assay-ready plates were sealed and frozen at −80°C until use.
# C. elegans strain PE254 were collected from 12 NGM plates as above, transferred to 250 ml S medium supplemented with OP50 E. coli pellet collected from 2 l overnight culture, and grown for 5 days at 21°C with vigorous shaking in an Incu-Shaker Mini Shaking Incubator (Benchmark Scientific, Inc.). Eggs were axenized as above and hatched overnight in M9 buffer at 21°C and shaken at 65 rpm. Assay ready plates were thawed and allowed to equilibrate to ambient temperature. BGs in S medium (30 µl/well) at an OD600=0.85 were manually added across plates with a Capp pipette. Synchronized L1 worms from above were collected, diluted and plated at ten worms/30 µl/well with a Capp pipette into assay-ready microtiter plates pre-plated with BGs and compounds (240-fold dilution). […] No ethical approval or guidance is needed for working with nematodes.
# Data from the Anti-Infectives screen were normalized by plate to corresponding intra-plate controls as previously described ([Inglese et al., 2006]). Assay statistics were calculated using the same respective controls. Total object ‘GFP’ area (µm^2) and number of worms were normalized to the average signal of DMSO-treated wells as zero percent neutral control, and the average signal of 41.7 µM levamisole-treated wells as −100% activity. In-house software was used to fit the resulting inter-plate titration data to the standard Hill equation, and concentration–response curves were classified by activity as previously described ([Southall et al., 2009]). Curve fits assignments of −1.1, −1.2, −2.1, −2.2 and −3 were considered active and visually confirmed.
# [2] = tested on: C. elegans strain PE254; assay: Life-stage distribution analysis by COPAS flow cytometry after 7-day treatment; conditions: 7-day treatment at ∼EC75-80; mixed population of 2000 worms/well
# Experimental: After 7 days of compound treatment in six-well culture plates seeded with a mixed population of 2000 C. elegans strain PE254, a life-stage distribution analysis was determined by TOF and EC using the COPAS FP BioSorter, followed by bulk collection in a 50 ml conical tube for use in proteomics studies.
# [3] = tested on: C. elegans strain PE254; assay: Follow-up 11-point re-test, C. elegans LSC viability; conditions: 11-point titration, day 7, GFP area and worm number
# Experimental: C. elegans strain PE254 were collected from six NGM plates and washed. […] Assay-ready plates were prepared as above with an 11-point, 1:3 titration of 96 compounds identified as active from the qHTS screen based on curve classification and maximum response. […] Data were normalized as above, and concentration–response curves were fit in Prism with nonlinear regression log(agonist) versus response–variable slope (four parameters) fit.
# [4] = read-out: qHTS potency based on GFP area
# [5] = read-out: qHTS potency based on worm number
SMILES,activity on C. elegans viability in primary qHTS (in words) [1],also measured
COc1cc2c(cc1-c1c(C)noc1C)ncc1[nH]c(=O)n([C@H](C)c3ccccn3)c12 [I-BET151],inactive,–
C[C@H](NC(=O)[C@@H](O)c1cc(F)cc(F)c1)C(=O)N[C@@H]1C(=O)N(C)c2ccccc2-c2ccccc21 [LY-411575],–,effect on life stage viability (in words) [2]: affecting life-stage progression or number
Cc1noc2c1-c1ccccc1C(c1ccc(Cl)cc1)=N[C@H]2CC(N)=O [CPI-0610],Active,–
Cc1sc2c(c1C)C(c1ccc(Cl)cc1)=N[C@@H](CC(=O)OC(C)(C)C)c1nnc(C)n1-2 [JQ1],Active,–
"CC(C)(C)c1cc(C=C(C#N)C#N)cc(C(C)(C)C)c1O [Tyrphostin A9, tyrphostin A9]",–,activity on C. elegans viability in follow-up (in words) [3]: best activity; also recorded: potent and/or efficacious toxicity
CCNC(=O)C[C@@H]1N=C(c2ccc(Cl)cc2)c2cc(OC)ccc2-n2c(C)nnc21 [I-BET762],Active,–
CC(C)C[C@H](NC(=O)[C@H](CCc1ccccc1)NC(=O)CN1CCOCC1)C(=O)N[C@@H](Cc1ccccc1)C(=O)N[C@@H](CC(C)C)C(=O)[C@@]1(C)CO1 [Carfilzomib],Inactive,–
Cc1sc2c(c1C)C(c1ccc(Cl)cc1)=N[C@@H](CC(=O)Nc1ccc(O)cc1)c1nnc(C)n1-2 [OTX-015],inactive,–
COC[C@H](NC(=O)c1cnc(C)s1)C(=O)N[C@@H](COC)C(=O)N[C@@H](Cc1ccccc1)C(=O)[C@@]1(C)CO1 [Oprozomib],Inactive,–
CC(C)C[C@H](NC(=O)[C@@H](NC(=O)c1cccc(-c2ccccc2)n1)[C@@H](C)O)B(O)O [Delanzomib],–,"EC50 [1, 4]: 405 nM; EC50 [1, 5]: 311 nM"
"O=C(/C=C\n1cnc(-c2cc(C(F)(F)F)cc(C(F)(F)F)c2)n1)NNc1ccccn1 [Verdinexor, verdinexor]",low potency and efficacy,activity on C. elegans viability in follow-up (in words) [3]: moderately active
O=[N+]([O-])c1ccc(S(=O)(=O)N2CCN(c3ccnc4cc(Cl)ccc34)CC2)c([N+](=O)[O-])c1 [VR23],Inactive,–
CC(C)C[C@H](NC(=O)CNC(=O)c1cc(Cl)ccc1Cl)B1OC(=O)C(CC(=O)O)(CC(=O)O)O1 [Ixazomib citrate],–,"EC50 [1, 4]: 411 nM; EC50 [1, 5]: 382 nM"
CC(C)C[C@H](NC(=O)CNC(=O)c1cc(Cl)ccc1Cl)B(O)O [Ixazomib],–,"EC50 [1, 4]: 1130 nM; EC50 [1, 5]: 863 nM"
CCCC[C@@H](C=O)NC(=O)[C@H](CC(C)C)NC(=O)OCc1ccccc1 [Calpeptin],Inactive,–
